Columns and labels:
[1] = tested on: differentiated L6-myotubes; assay: Glucose uptake screen (Biological example 1 of WO 2019/053427); format: cell-based; details: compound at 10 μM, activity relative to isoproterenol at 10 μM, read-out: Biological example 1 of WO 2019/053427 (GU)
In short: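 Rat L6 myoblasts were differentiated into myotubes over 7 days in 2% FBS, then serum-starved overnight. Cells were stimulated with 1×10^−5 M compound plus β2 antagonist ICI-118551 for 1 h 40 min and re-dosed for 20 min in glucose-free medium. Uptake of 50 nM ^3H-2-deoxyglucose over 10 min was counted after NaOH lysis.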

[2] = tested on: differentiated L6-myotubes; assay: cAMP production relative to isoprenaline (Biological example 2 of WO 2019/053427); format: cell-based; details: 0.25 h, compound at 10 μM, activity relative to isoproterenol at 10 μM
In short: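 Differentiated L6 myotubes stimulated 15 min with test compound or isoprenaline, each at final 1×10^−5 M, in HBSS with 1% BSA, 5 mM HEPES, 1 mM IBMX, pH 7.4. cAMP production by the compound expressed relative to that induced by the same concentration of isoprenaline.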

SMILES: CC(C)(NC[C@H](O)c1cncc(F)c1)[C@H]1CC[C@@H](OCc2ccccc2)CC1 [Compound 282, (R)-1-(5-fluoro-3-pyridyl)-2-{1-methyl-1-[(1s,4S)-4-(benzyloxy)cylcohexyl]eth-ylamino}-1-ethanol]
- Emax at 10 µM [1]: 50 to 75%
- Emax at 10 µM [2]: < 25%

SMILES: CS(=O)(=O)N(Cc1ccccc1)CC12CCC([C@H](O)c3cccc(F)c3)(CC1)N2 [Compound 537, (R)-(4-{[(benzyl)-N-mesylamino]methyl}-7-azabicyclo[2.2.1]hept-1-yl)(m-fluorophenyl)methanol]
- Emax at 10 µM [1]: 50 to 75%
- Emax at 10 µM [2]: 25 to 50%

SMILES: CC(=O)N[C@H]1CC[C@H](CNC[C@H](O)c2cccc(F)c2)CC1 [Compound 308, N-[(1R,4r)-4-{[(R)-2-(m-fluorophenyl)-2-hydroxyethylamino]methyl}cyclohexyl]acetamide]
- Emax at 10 µM [1]: 50 to 75%
- Emax at 10 µM [2]: < 25%

SMILES: O[C@@H](CNCCC[C@H]1CC[C@H](O)CC1)c1cccc(F)c1 [Compound 303, (R)-1-(m-fluorophenyl)-2-{3-[(1r,4S)-4-hydroxycyclohexyl]propylamino}-1-ethanol]
- Emax at 10 µM [1]: 50 to 75%
- Emax at 10 µM [2]: < 25%

SMILES: CS(=O)(=O)Nc1cccc(CC23CCC([C@H](O)c4cccc(F)c4)(CC2)N3)c1 [Compound 515, (R)-(m-fluorophenyl)(4-{[m-(mesylamino)phenyl]methyl}-7-azabicyclo[2.2.1]hept-1-yl)methanol]
- Emax at 10 µM [1]: 50 to 75%
- Emax at 10 µM [2]: 25 to 50%

SMILES: CO[C@H]1CC[C@H](C[C@@H]2CC[C@H]([C@@H](O)c3cccc(F)c3)N2)CC1 [Compound 325, (S)-[(2R,5S)-5-{[(1r,4S)-4-methoxycyclohexyl]methyl}-2-pyrrolidinyl](m-fluorophenyl)methanol]
- Emax at 10 µM [1]: > 75%
- Emax at 10 µM [2]: < 25%

SMILES: CS(=O)(=O)N[C@H]1CC[C@H](CNC[C@H](O)c2cncc(F)c2)CC1 [Compound 313, (R)-1-(5-fluoro-3-pyridyl)-2-({[(1r,4R)-4-(mesylamino)cyclohexyl]methyl}amino)-1-ethanol]
- Emax at 10 µM [1]: 25 to 50%
- Emax at 10 µM [2]: < 25%

SMILES: CC(C)(C[C@H]1CC[C@@H](NS(=O)(=O)C2CC2)CC1)NC[C@H](O)c1cccc(F)c1 [Compound 494, (R)-2-{1,1-dimethyl-2-[(1s,4S)-4-(cyclopropylsuflonylamino)cyclohexyl]ethylamino}-1-(m-fluorophenyl)-1-ethanol]
- Emax at 10 µM [1]: 25 to 50%
- Emax at 10 µM [2]: < 25%

SMILES: Cc1ncccc1[C@@H](O)CNC(C)(C)C[C@H]1CC[C@@H](NS(C)(=O)=O)CC1 [Compound 437, (R)-2-{1,1-dimethyl-2-[(1s,4S)-4-(mesylamino)cyclohexyl]ethylamino}-1-(2-methyl-3-pyridyl)-1-ethanol]
- Emax at 10 µM [1]: 25 to 50%
- Emax at 10 µM [2]: < 25%

SMILES: CC(=O)N[C@H]1CC[C@@H](CC(C)(C)NC[C@H](O)c2cccc(F)c2)CC1 [Compound 452, N-[(1S,4s)-4-{2-[(R)-2-(m-fluorophenyl)-2-hydroxyethylamino]-2-methylpropyl}cyclohexyl]acetamide]
- Emax at 10 µM [1]: > 75%
- Emax at 10 µM [2]: < 25%

SMILES: CC12CC(C1)[C@H]([C@@H](O)c1cccc(F)c1)N2 [Compound 187, (S)-{(R)-1-methyl-2-azabicyclo[2.1.1]hex-3-yl}(m-fluorophenyl)methanol]
- Emax at 10 µM [1]: 25 to 50%
- Emax at 10 µM [2]: < 25%

SMILES: CC12CCC([C@H](O)c3ccncc3F)(CC1)N2 [Compound 254, (R)-(3-fluoro-4-pyridyl)(4-methyl-7-azabicyclo[2.2.1]hept-1-yl)methanol]
- Emax at 10 µM [1]: < 25%
- Emax at 10 µM [2]: < 25%

SMILES: CC12CCC([C@@H](O)c3ccncc3F)(CC1)N2 [Compound 253, (S)-(3-fluoro-4-pyridyl)(4-methyl-7-azabicyclo[2.2.1]hept-1-yl)methanol]
- Emax at 10 µM [1]: < 25%
- Emax at 10 µM [2]: < 25%

SMILES: CC(C)(C[C@H]1CC[C@@H](NC(=O)C2CC2)CC1)NC[C@H](O)c1cccc(F)c1 [Compound 447, N-[(1S,4s)-4-{2-[(R)-2-(m-fluorophenyl)-2-hydroxyethylamino]-2-methylpropyl}cyclohexyl]cyclopropanecarboxamide]
- Emax at 10 µM [1]: > 75%
- Emax at 10 µM [2]: < 25%

SMILES: CCCCNCC(O)c1cccc(Cl)c1 (centres unmarked) [Compound 2, 2-(butylamino)-1-(m-chlorophenyl)-1-ethanol]
- Emax at 10 µM [1]: 25 to 50%
- Emax at 10 µM [2]: < 25%

SMILES: CCC[C@H]1CCC[C@H]([C@H](O)c2cc(F)cc(F)c2)N1 [Compound 68, (R)-[(2R,6S)-6-propyl-2-piperidyl](3,5-difluorophenyl)methanol]
- Emax at 10 µM [1]: 50 to 75%
- Emax at 10 µM [2]: < 25%

SMILES: CO[C@H]1CC[C@H](C[C@@H]2CC[C@H]([C@H](O)c3cncc(F)c3)N2)CC1 [Compound 333, (R)-[(2R,5S)-5-{[(1r,4S)-4-methoxycyclohexyl]methyl}-2-pyrrolidinyl](5-fluoro-3-pyridyl)methanol]
- Emax at 10 µM [1]: 25 to 50%
- Emax at 10 µM [2]: < 25%

SMILES: CC(=O)N(C)[C@H]1CC[C@@H](CC(C)(C)NC[C@H](O)c2cccc(F)c2)CC1 [Compound 492, N-[(1S,4s)-4-{2-[(R)-2-(m-fluorophenyl)-2-hydroxyethylamino]-2-methylpropyl}cyclohexyl]-N-methylacetamide]
- Emax at 10 µM [1]: 25 to 50%
- Emax at 10 µM [2]: < 25%

SMILES: CCCCNCC(O)c1ccc(=O)[nH]c1 (centres unmarked) [Compound 63, 5-[2-(butylamino)-1-hydroxyethyl]-2(1H)-pyridinone]
- Emax at 10 µM [1]: 25 to 50%
- Emax at 10 µM [2]: < 25%

SMILES: CC(C)(C[C@H]1CC[C@@H](NS(C)(=O)=O)CC1)NC[C@H](O)c1cccc(F)c1 [Compound 453, (R)-2-{1,1-dimethyl-2-[(1s,4S)-4-(mesylamino)cyclohexyl]ethylamino}-1-(m-fluorophenyl)-1-ethanol]
- Emax at 10 µM [1]: > 75%
- Emax at 10 µM [2]: < 25%

SMILES: CCCCNC[C@H](O)c1ccccc1F [Compound 79, (R)-2-(butylamino)-1-(o-fluorophenyl)-1-ethanol]
- Emax at 10 µM [1]: > 75%
- Emax at 10 µM [2]: < 25%

SMILES: CS(=O)(=O)N[C@H]1CC[C@@H](C[C@@H]2CC[C@H]([C@@H](O)c3cccc(F)c3)N2)CC1 [Compound 511, (S)-[(2R,5S)-5-{[(1s,4R)-4-(mesylamino)cyclohexyl]methyl}-2-pyrrolidinyl](m-fluorophenyl)methanol]
- Emax at 10 µM [1]: 25 to 50%
- Emax at 10 µM [2]: < 25%

SMILES: CO[C@H]1CC[C@H](CCC(C)(C)NC[C@H](O)c2cncc(F)c2)CC1 [Compound 267, (R)-2-{1,1-dimethyl-3-[(1r,4S)-4-methoxycyclohexyl]propyl-amino}-1-(5-fluoro-3-pyrdiyl)-1-ethanol]
- Emax at 10 µM [1]: 25 to 50%
- Emax at 10 µM [2]: < 25%

SMILES: COc1ccc(C[C@@H]2CC[C@H]([C@H](O)c3cncc(F)c3)N2)cc1 [Compound 378, (R)-{(2R,5S)-5-[(p-methoxyphenyl)methyl]-2-pyrrolidinyl}(5-fluoro-3-pyridyl)methanol]
- Emax at 10 µM [1]: > 75%
- Emax at 10 µM [2]: < 25%

SMILES: CCCCNC[C@H](O)c1cccc(F)c1F [Compound 77, (R)-2-(butylamino)-1-(2,3-difluorophenyl)-1-ethanol]
- Emax at 10 µM [1]: > 75%
- Emax at 10 µM [2]: < 25%

SMILES: CC(C)(C[C@H]1CC[C@H](NC(=O)C2CC2)CC1)NC[C@H](O)c1cccc(F)c1 [Compound 432, N-[(1R,4r)-4-{2-[(R)-2-(m-fluorophenyl)-2-hydroxyethylamino]-2-methylpropyl}cyclohexyl]cyclopropanecarboxmaide]
- Emax at 10 µM [1]: > 75%
- Emax at 10 µM [2]: > 75%

SMILES: CS(=O)(=O)N[C@H]1CC[C@@H](CNC[C@H](O)c2cccc(F)c2)CC1 [Compound 312, (R)-1-(m-fluorophenyl)-2-({[(1s,4S)-4-(mesylamino)cyclohexyl]methyl}amino)-1-ethanol]
- Emax at 10 µM [1]: 50 to 75%
- Emax at 10 µM [2]: < 25%

SMILES: CCC[C@H]1CCC[C@H]([C@@H](O)c2ccccc2F)N1 [Compound 106, (S)-[(2R,6S)-6-propyl-2-piperidyl](o-fluorophenyl)methanol]
- Emax at 10 µM [1]: 25 to 50%
- Emax at 10 µM [2]: < 25%

SMILES: CC(C)(NC[C@H](O)c1cccc(F)c1)[C@H]1CC[C@@H](O)CC1 [Compound 284, (R)-1-(m-fluorophenyl)-2-{1-methyl-1-[(1s,4S)-4-hydroxycyclohexyl]ethyl-amino}-1-ethanol]
- Emax at 10 µM [1]: 50 to 75%
- Emax at 10 µM [2]: < 25%

SMILES: CC(C)(C[C@H]1CC[C@@H](NS(=O)(=O)C(F)(F)F)CC1)NC[C@H](O)c1cncc(F)c1 [Compound 522, (R)-2-{1,1-dimethyl-2-[(1s,4S)-4-(trifluoromesylamino)cychloehxyl]ethylamino}-1-(5-fluoro-3-pyridyl)-1-ethanol]
- Emax at 10 µM [1]: > 75%
- Emax at 10 µM [2]: < 25%

SMILES: CCCCNCC(O)c1ccc(O)cc1 (centres unmarked) [Compound 1, 2-(butylamino)-1-(p-hydroxyphenyl)-1-ethanol]
- Emax at 10 µM [1]: > 75%
- Emax at 10 µM [2]: < 25%

SMILES: CS(=O)(=O)N[C@H]1CC[C@H](CNC[C@H](O)c2cccc(F)c2)CC1 [Compound 311, (R)-1-(m-fluorophenyl)-2-({[(1r,4R)-4-(mesylamino)cyclohexyl]methyl}amino)-1-ethanol]
- Emax at 10 µM [1]: 50 to 75%
- Emax at 10 µM [2]: < 25%

SMILES: CNS(=O)(=O)[C@H]1CC[C@H](CC(C)(C)NC[C@H](O)c2cncc(F)c2)CC1 [Compound 478, (R)-2-{1,1-dimethyl-2-[(1r,4R)-4-(methylaminosulfonyl)cyclohexyl]ethylamino}-1-(5-fluoro-3-pyridyl)-1-ethanol]
- Emax at 10 µM [1]: 25 to 50%
- Emax at 10 µM [2]: < 25%

SMILES: CO[C@H]1CC[C@@H](CC(C)(C)NC[C@H](O)c2cccc(F)c2)CC1 [Compound 247, (R)-2-{1,1-dimethyl-2-[(1s,4S)-4-methoxycyclohexyl]ethyl-amino}-1-(m-fluorophenyl)-1-ethanol]
- Emax at 10 µM [1]: > 75%
- Emax at 10 µM [2]: < 25%

Reference: patent US20260256751A1, “COMBINATION OF BETA-2-ADRENERGIC RECEPTOR AGONISTS AND GLP-1 RECEPTOR AGONISTS FOR USE IN TREATING HYPERGLYCAEMIA” (ATROGI AB, priority 2023, published 2026)
